Measurements from patent US8957129B2, “Aqueous coatings and paints incorporating one or more antimicrobial biosurfactants and methods for using same” (priority 2012, dated 2015).
Converted amounts (≈) assume the structure as drawn. Like-named read-outs stand apart in the source and are kept apart here.

Tests used:
S. aureus = experiment: MIC determination in broth media, two fold dilution, microtiter plates; type: cell-based; conditions: Staphylococcus aureus, read-out: Minimum Inhibitory Concentration (MIC), alone (QA/QB)
Candida albicans = experiment: as above; type: cell-based; conditions: read-out: Minimum Inhibitory Concentration (MIC), alone (QA/QB)
Aspergillus niger = experiment: as above; type: cell-based
B. cepacia = experiment: as above; type: cell-based, Burkhlderia cepacia; conditions: for MIC: Burkholderia cepacia, read-out: Minimum Inhibitory Concentration (MIC), alone (QA/QB)
fungi = experiment: Challenge test of combinations of Rhamnolipids with Isothiazolinones in flat paint; type: cell-based; conditions: levels: RL 250 ppm, CMIT/MIT 5 ppm, MIT 25 ppm, BIT 50 ppm
Procedure: (§1) A second batch of flat paint formulation was prepared without any surfactants. Then Rhamnolipids (RL) were post-added to this formulation. The formulation was then subjected to an initial screen challenge test using 250 to 2000 ppm RL with mixed populations of E. coli and Pseudomonas aeruginosa.
(§2) Using the same paints, a biocide at lower use level was combined with Rhamnolipid (RL) at a minimum use of 250 ppm.

bacteria = experiment: as above; type: cell-based; conditions: levels: RL 250 ppm, CMIT/MIT 5 ppm, MIT 25 ppm, BIT 50 ppm
Procedure: as §1, §2

Bacillus cereus = experiment: MIC determination in broth media, two fold dilution, microtiter plates; type: cell-based; conditions: read-out: Minimum Inhibitory Concentration (MIC), alone (QA/QB)
P. aeruginosa = experiment: as above; type: cell-based, Pseudomonas aeruginosa; conditions: for MIC: Pseudomonas aeruginosa
E. coli = experiment: as above; type: cell-based; conditions: Escherichia coli, read-out: Minimum Inhibitory Concentration (MIC), alone (QA/QB), E. coli, substance alone
[1] = B. cepacia, substance alone, broth

O=c1[nH]sc2ccccc12 [BIT, Benz Isothiazolinone]
MIC (S. aureus; S. aureus, substance alone, broth): 25 µg/mL (≈ 165 µM) | MIC (Candida albicans; substance alone, broth): 25 µg/mL (≈ 165 µM) | MIC (Aspergillus niger; substance alone, read-out: Minimum Inhibitory Concentration (MIC), alone (QA/QB)): 50 µg/mL (≈ 331 µM) | Minimum Inhibitory Concentration (MIC), alone (QA/QB) (B. cepacia; [1]): 25 ppm | MIC (B. cepacia; [1]): 50 µg/mL (≈ 331 µM) | Day 1 Fungi growth (fungi): + | Day 2 Fungi growth (fungi): + | Day 5 Fungi growth (fungi): + | Day 1 Bacteria growth (bacteria): − | Day 2 Bacteria growth (bacteria): − | Day 5 Bacteria growth (bacteria): − | MIC (Bacillus cereus; substance alone, broth): 25 µg/mL (≈ 165 µM) | MIC (P. aeruginosa; P. aeruginosa, substance alone, read-out: Minimum Inhibitory Concentration (MIC), alone (QA/QB)): 25 µg/mL (≈ 165 µM)

Cn1sccc1=O [MIT, Methyl Isothiazolinone]
MIC (E. coli): ~25 µg/mL (≈ 217 µM) | MIC (S. aureus): 25 µg/mL (≈ 217 µM) | MIC (Candida albicans): 100 µg/mL (≈ 868 µM) | MIC (Aspergillus niger; read-out: Minimum Inhibitory Concentration (MIC), alone (QA/QB), Aspergillus niger, substance alone): > 100 µg/mL | Minimum Inhibitory Concentration (MIC), alone (QA/QB) (Aspergillus niger; substance alone): 100 ppm | MIC (B. cepacia): 25 µg/mL (≈ 217 µM) | Day 1 Fungi growth (fungi): + | Day 2 Fungi growth (fungi): + | Day 5 Fungi growth (fungi): − | Day 1 Bacteria growth (bacteria): − | Day 2 Bacteria growth (bacteria): − | Day 5 Bacteria growth (bacteria): − | MIC (Bacillus cereus): 25 µg/mL (≈ 217 µM) | Minimum Inhibitory Concentration (MIC), alone (QA/QB) (P. aeruginosa; P. aeruginosa, substance alone): 25 ppm | MIC (P. aeruginosa; read-out: Minimum Inhibitory Concentration (MIC), alone (QA/QB), P. aeruginosa, substance alone): 12.5 µg/mL (≈ 109 µM)
